Columns and labels:
[1] = tested on: Staphylococcus areus; test: Yellow pigment retained in cultured Staphylococcus areus; type: cell-based; conditions: cultured over night or 2 days with AF-16, vs vehicle
Excerpt: Effects of AF was investigated in addition in prokaryotic cells, which are enclosed by a complex cell wall, thereby enabling the development of elevated pressure due to hampered membrane functions. That was done in bacteria, which synthesize and release a wide variety of substances that may cause damage to mammalian cells and thus to a body. Examples on such products are pigments, enzymes and toxins, which are transferred through the outer bacterial membrane to the extracellular environment. Inhibition of such membrane activities would reduce or even block the transfer and/or release of such pathogenic substances. In order to investigate if the peptide AF-16 affected the transfer of bacterial products from its synthesis in the bacterium to its environment, the following experiment was performed. The bacterium Staphylococcus areus, which synthesize a yellow pigment, was cultured over night or, occasionally for 2 days, in the presence or absence of the peptide AF-16. After a day or two was the bacterial culture rinsed, and then concentrated by centrifugation. The yellow pigment formed by the Staphylococcus areus was extracted from the permeabilized, pelleted bacteria with methanol and the light absorption determined by spectrometry.

[2] = tested on: femoral artery; test: Injured arteries, local delivery by osmotic minipump; type: in vivo, rat
Excerpt: During surgery and at a trauma arteries may be injured, causing the vascular wall to swell. These events will result in the development of elevated IFP in the vascular wall, resulting in inflammatory reactions and rebuilding (Hansson, Jennische & Skottner, 1987). […] Additional animals had for comparison their pumps filled with the vehicle. The injured arteries were investigated either 3, 5, 7 or 14 days later. Blood vessels recovered from the vehicle-treated animals were tender, had increased outer diameter and were swollen. […] The potency rate was higher for those treated with AF-16 as compared to the vehicle exposed ones. […] Further, the number of macrophages, foam cells and lymphocytes was as well reduced by the AF-16 treatment.

[3] = tested on: flotillin-1 and aquaporin 1 immunoreactivities in the choroid plexus; test: Immunohistochemistry of flotillin-1 and aquaporin 1 in choroid plexus of HSV-1 infected rats; type: in vivo, rat; conditions: hardly demonstrable with vehicle
Protocol: Therefore, rats were infected by instillation in their right nostril of 25 μL of a solution of the herpes simplex virus type 1 (HSV-1; strain 2762, batch 041028; 1.7×10^7 PFU/mL). Half of the animals received 10 min later 25 μL (1, 10 or 25 pg) of AF-16 in their right nostril, and had thereafter the same dose of AF-16 instilled every morning at 8 AM and every night at 6 PM until the experiment was terminated on day 14. The other half of the group of HSV-1 infected rats received 25 μL of the vehicle, PBS, at the same time schedule. The animals were several times daily closely watched for signs of behavioral dysfunction or general sickness. If so, the animals were sacrificed. The FIG. 3 is illustrating the survival rates for the animals, all being infected with HSV-1. […] In contrast, the HSV-1 infected rats, receiving just the vehicle (n=15), died to a large extent and only 10% were still surviving at the end of the test period, day 14 (FIG. 3). All of the vehicle treated, infected rats developed signs of neurological dysfunctions. […] It ought to be stressed that the extent and severity of the damage were depending on the duration of the exposure and to the level of elevated ICP as well as to the survival time. […]

VCHSKTRSNPENNVGL [AF-16]
yellow pigment extracted from bacteria (light absorption), corrected for number of bacteria [1]: much more of the yellow pigment
swelling and inflammation of injured vessels ([2]; 3, 5, 7 or 14 days, vs vehicle): less swollen and inflamed
damage, inflammatory reactions and reactive alterations (neointima) of femoral artery ([2]; after 14 days, vs vehicle): less damage and less prominent inflammatory reactions and less extensive reactive alterations
number of macrophages, foam cells and lymphocytes ([2]; rat, in vivo): reduced
potency rate ([2]; vs vehicle): higher
aquaporin 1 immunoreactivity in the choroid plexus [3]: readily demonstrable
flotillin-1 immunoreactivity in the choroid plexus [3]: readily demonstrable

Reference: patent publication US8389468B2, “Approach to the treatment of compartment syndrome” (Lantmannen AS-Faktor AB, priority 2006, dated 2013)
